This assay deals with T1, H3 receptors (Cavia porcellus, UniProt Q9JI35).
T1 construct: The source of the H3 receptors in this experiment was guinea pig brain; from tissue; host or cells: guinea pig brain membranes
In words: H3-Receptor Binding Assay. Conditions: guinea pig brain membranes; 3 nM [3H]R-α-methyl histamine or 3 nM [3H]Nα-methyl histamine; 30° C., 30 min. The method, then:
Using the appropriate indolene starting materials in a similar procedure, the following compounds were prepared: [drawing 145] General Procedure for H3-Receptor Binding Assay
The source of the H3 receptors in this experiment was guinea pig brain. The animals weighed 400-600 g. The brain tissue was homogenized with a solution of 50 mM Tris, pH 7.5. The final concentration of tissue in the homogenization buffer was 10% w/v. The homogenates were centrifuged at 1,000×g for 10 min. in order to remove clumps of tissue and debris. The resulting supernatants were then centrifuged at 50,000×g for 20 min. in order to sediment the membranes, which were next washed three times in homogenization buffer (50,000×g for 20 min. each). The membranes were frozen and stored at −70° C. until needed.
All compounds to be tested were dissolved in DMSO and then diluted into the binding buffer (50 mM Tris, pH 7.5) such that the final concentration was 2 μg/ml with 0.1% DMSO. Membranes were then added (400 μg of protein) to the reaction tubes. The reaction was started by the addition of 3 nM [^3H]R-α-methyl histamine (8.8 Ci/mmol) or 3 nM [^3H]N^α-methyl histamine (80 Ci/mmol) and continued under incubation at 30° C. for 30 min. Bound ligand was separated from unbound ligand by filtration, and the amount of radioactive ligand bound to the membranes was quantitated by liquid scintillation spectrometry. […]

Data on one molecule can be found in patent US6951871B2, “Indole derivatives useful as histamine H3 antagonists” (Schering Corporation, priority 2002, dated 2005).

T1 sequence (Q9JI35 whole entry): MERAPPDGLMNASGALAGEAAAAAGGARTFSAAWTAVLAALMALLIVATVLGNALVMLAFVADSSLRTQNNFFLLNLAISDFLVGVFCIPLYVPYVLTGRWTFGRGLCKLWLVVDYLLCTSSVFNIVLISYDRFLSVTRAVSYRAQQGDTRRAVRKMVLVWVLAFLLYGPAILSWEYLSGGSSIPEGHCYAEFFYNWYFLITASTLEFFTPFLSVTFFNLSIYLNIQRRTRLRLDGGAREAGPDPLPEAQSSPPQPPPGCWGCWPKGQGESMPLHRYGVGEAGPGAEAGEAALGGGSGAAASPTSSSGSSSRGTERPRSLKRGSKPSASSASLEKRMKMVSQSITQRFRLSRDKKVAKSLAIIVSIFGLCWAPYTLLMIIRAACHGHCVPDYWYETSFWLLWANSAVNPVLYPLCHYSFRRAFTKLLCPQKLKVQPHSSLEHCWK

Regarding `Nc1cc(CN2CCC(C(=O)N3CCC(c4c(-c5ccccn5)n(Cc5ccccn5)c5ccccc45)CC3)CC2)ccn1` [Example 5], the Ki (commonly a measure of affinity in units of concentration, obtained from inhibition or displacement) stood at 1.5 nM.
